The source of these data is PubChem BioAssay AID328 (DTP/NCI, 2004).

Values joined by “and” are separate entries in the source; they are usually repeats but may differ in a detail not shown here. Equal entries are not always repeated. Inconclusive results and toxic doses are left out.

This test relates to BDF1 mice, P388 leukemia ip, median survival T/C. The test is described as follows: NCI In Vivo Anticancer Drug Screen. Data for tumor model P388 Leukemia (intraperitoneal) in B6D2F1 (BDF1) mice. The note with it: endpoint: median survival time, higher = longer survival. In a few lines:
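Steps: implant the tumour, treat one group with compound and another with vehicle, record survival, then divide treated by control.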

Where [1] appears, read: dose: 50.0 mg/kg/injection, schedule: Q04DX003 (ip), vehicle: saline.
[2] abbreviates: dose: 100.0 mg/kg/injection, schedule: Q01DX009 (ip), vehicle: saline with Tween-80.
Where [3] appears, read: dose: 100.0 mg/kg/injection, schedule: Q04DX003 (ip), vehicle: saline with Tween-80.
[4] abbreviates: dose: 200.0 mg/kg/injection, schedule: Q01DX009 (ip), vehicle: saline with Tween-80.
Setting [5] is: dose: 200.0 mg/kg/injection, schedule: Q04DX003 (ip), vehicle: saline with Tween-80.
Where [6] appears, read: dose: 400.0 mg/kg/injection, schedule: Q04DX003 (ip), vehicle: saline with Tween-80.
Where [7] appears, read: dose: 50.0 mg/kg/injection, schedule: Q04DX003 (ip), vehicle: saline with Tween-80.
The mark [8] stands for this setting: dose: 25.0 mg/kg/injection, schedule: Q04DX003 (ip), vehicle: saline with Tween-80.
[9] abbreviates: dose: 100.0 mg/kg/injection, schedule: Q04DX003 (ip), vehicle: saline.

For the molecule `O=C(NP(=O)(N1CC1)N1CC1)c1cc(I)ccc1I`, the T/C by setting is: (dose: 1.0 mg/kg/injection, schedule: Q01DX001 (oral), vehicle: saline) 102 % of control; (dose: 1.0 mg/kg/injection, schedule: Q01DX009 (ip), vehicle: saline with Tween-80) 110 % of control; (dose: 1.0 mg/kg/injection, schedule: Q01DX009 (ip), vehicle: saline) 104 % of control and 202 % of control; (dose: 2.0 mg/kg/injection, schedule: Q01DX001 (oral), vehicle: saline) 100 % of control; (dose: 2.0 mg/kg/injection, schedule: Q01DX009 (ip), vehicle: saline with Tween-80) 101 % of control; (dose: 4.0 mg/kg/injection, schedule: Q01DX001 (oral), vehicle: saline) 101 % of control. The T/C is 105 % of control (dose: 4.0 mg/kg/injection, schedule: Q01DX009 (ip), vehicle: saline with Tween-80); 96 % of control and 222 % of control (dose: 4.0 mg/kg/injection, schedule: Q01DX009 (ip), vehicle: saline); 113 % of control (dose: 8.0 mg/kg/injection, schedule: Q01DX001 (oral), vehicle: saline); 232 % of control and 150 % of control (dose: 8.0 mg/kg/injection, schedule: Q01DX009 (ip), vehicle: saline); 113 % of control (dose: 16.0 mg/kg/injection, schedule: Q01DX001 (oral), vehicle: saline); 214 % of control (dose: 16.0 mg/kg/injection, schedule: Q01DX009 (ip), vehicle: saline with Tween-80). Moreover, the T/C was 177 % of control and 191 % of control (dose: 16.0 mg/kg/injection, schedule: Q01DX009 (ip), vehicle: saline); 177 % of control (dose: 32.0 mg/kg/injection, schedule: Q01DX009 (ip), vehicle: saline with Tween-80); 93 % of control and 207 % of control (dose: 32.0 mg/kg/injection, schedule: Q01DX009 (ip), vehicle: saline); 150 % of control (dose: 64.0 mg/kg/injection, schedule: Q01DX001 (oral), vehicle: saline); 112 % of control (dose: 64.0 mg/kg/injection, schedule: Q01DX009 (ip), vehicle: saline with Tween-80); 123 % of control (dose: 128.0 mg/kg/injection, schedule: Q01DX009 (ip), vehicle: saline). The T/C (dose: 256.0 mg/kg/injection, schedule: Q01DX001 (oral), vehicle: saline) is 161 % of control.

Take `O=S1(=O)CCN(C2CCCC2)CC1`: the T/C by setting is: (dose: 50.0 mg/kg/injection, schedule: Q01DX009 (ip), vehicle: Klucel (hydroxypropylcellulose) (HPC)) 104 % of control; (dose: 100.0 mg/kg/injection, schedule: Q01DX009 (ip), vehicle: Klucel (hydroxypropylcellulose) (HPC)) 121 % of control; (dose: 200.0 mg/kg/injection, schedule: Q01DX009 (ip), vehicle: Klucel (hydroxypropylcellulose) (HPC)) 111 % of control.

Take `CCC[N+](CCC)(CCC)CCC.N#CN=C([SH2+])[SH2+].N#CN=C([SH2+])[SH2+].[Pt+2]`: under setting [1], the T/C was 100 % of control.

For `O=C(/C=C/c1ccccc1)c1cccc(Br)c1`, the T/C is 91 % of control under setting [2]; 109 % of control under setting [3]; 98 % of control under setting [4]; 104 % of control under setting [5]; 119 % of control (dose: 400.0 mg/kg/injection, schedule: Q01DX009 (ip), vehicle: saline with Tween-80); 104 % of control under setting [6].

Take `O=[N+]([O-])c1ccc(S(=O)(=O)Nc2ccc(-c3ccccc3)cc2)cc1`: the T/C is 96 % of control (dose: 100.0 mg/kg/injection, schedule: Q04DX003 (ip), vehicle: other); 104 % of control (dose: 200.0 mg/kg/injection, schedule: Q04DX003 (ip), vehicle: other); 100 % of control (dose: 400.0 mg/kg/injection, schedule: Q04DX003 (ip), vehicle: other).

As for `Cc1cc2c3ccccc3ccc2[n+]2ccccc12`, the T/C was 120 % of control (dose: 4.1 mg/kg/injection, schedule: Q01DX009 (ip), vehicle: saline); 161 % of control (dose: 9.37 mg/kg/injection, schedule: Q01DX009 (ip), vehicle: saline); 171 % of control and 180 % of control (dose: 18.75 mg/kg/injection, schedule: Q01DX009 (ip), vehicle: saline); 190 % of control (dose: 28.12 mg/kg/injection, schedule: Q01DX009 (ip), vehicle: saline); 112 % of control (dose: 37.5 mg/kg/injection, schedule: Q04DX003 (ip), vehicle: alcohol).

In the case of `O=c1oc2ccccc2c2c1C(c1ccccc1)C=C(c1ccccc1)O2` (stereo not drawn), the T/C under setting [7] is 96 % of control, the T/C under setting [3] is 91 % of control, the T/C under setting [5] is 91 % of control and the T/C under setting [6] is 95 % of control.

For the molecule `CCN(CC)CCOc1cccc(C)c1C`, the T/C is 96 % of control under setting [8], 100 % of control under setting [7] and 116 % of control under setting [3].

With `Cn1c(N)c(N=Nc2ccccc2Cl)c(=O)n(C)c1=O`, the T/C (dose: 50.0 mg/kg/injection, schedule: Q01DX009 (ip), vehicle: saline with Tween-80) was 98 % of control; the T/C under setting [2] was 99 % of control; the T/C under setting [4] was 100 % of control.

Take `NC(N)=Nc1ccc(C(=O)Oc2c(Cl)cc([N+](=O)[O-])cc2Cl)cc1`: the T/C is 94 % of control (dose: 0.18 mg/kg/injection, schedule: Q01DX009 (ip), vehicle: saline); 92 % of control (dose: 0.39 mg/kg/injection, schedule: Q01DX009 (ip), vehicle: saline); 96 % of control (dose: 0.78 mg/kg/injection, schedule: Q01DX009 (ip), vehicle: saline); 102 % of control (dose: 1.56 mg/kg/injection, schedule: Q01DX009 (ip), vehicle: saline); 86 % of control (dose: 3.12 mg/kg/injection, schedule: Q01DX009 (ip), vehicle: saline); 95 % of control under setting [1]. In addition, under setting [9], the T/C is 113 % of control.

With `O=C1CC2(C(=O)N1CN1CCN(c3ccc(F)cc3)CC1)c1ccccc1-c1ccccc12` (tested in a mixture with another compound), the T/C is, setting by setting: under setting [8], 101 % of control and 107 % of control and 121 % of control; under setting [7], 91 % of control and 101 % of control; under setting [3], 97 % of control and 105 % of control.

As for `Cc1ccc(O)cc1Cl`, the T/C is, setting by setting: (dose: 100.0 mg/kg/injection, schedule: Q01DX009 (ip), vehicle: saline) 96 % of control; (dose: 200.0 mg/kg/injection, schedule: Q01DX009 (ip), vehicle: saline) 104 % of control; (dose: 400.0 mg/kg/injection, schedule: Q01DX009 (ip), vehicle: saline) 104 % of control.

`O=C(c1ccc(Cl)cc1)n1c(Cl)c(/C=N\Nc2cccc([N+](=O)[O-])c2)c2ccccc21`: the T/C (dose: 400.0 mg/kg/injection, schedule: Q01DX001 (ip), vehicle: Klucel (hydroxypropylcellulose) (HPC)) is 89 % of control.

For `O=Cc1c[nH]c(=O)[nH]c1=O`, the T/C is, setting by setting: under setting [9], 91 % of control; (dose: 200.0 mg/kg/injection, schedule: Q04DX003 (ip), vehicle: saline) 99 % of control; (dose: 400.0 mg/kg/injection, schedule: Q04DX003 (ip), vehicle: saline) 88 % of control.

As for `COC(=O)C1C2C(C)CC3(CC12C)OCCO3` (stereo not drawn), the T/C under setting [3] is 90 % of control, the T/C under setting [5] was 109 % of control and the T/C under setting [6] is 100 % of control.

`COC1CC(N=[N+]=[N-])C(OS(C)(=O)=O)C(C)O1` (stereo not drawn): the T/C by setting is: under setting [3], 101 % of control; under setting [5], 102 % of control; under setting [6], 101 % of control.

`O=C1CC=Nc2ccc([N+](=O)[O-])cc21`: the T/C (dose: 100.0 mg/kg/injection, schedule: Q04DX003 (ip), vehicle: Klucel (hydroxypropylcellulose) (HPC)) is 100 % of control; the T/C (dose: 200.0 mg/kg/injection, schedule: Q04DX003 (ip), vehicle: Klucel (hydroxypropylcellulose) (HPC)) is 90 % of control; the T/C (dose: 400.0 mg/kg/injection, schedule: Q04DX003 (ip), vehicle: Klucel (hydroxypropylcellulose) (HPC)) is 95 % of control.
